The numbers were not newly measured in patent US4127532A, “Novel heptapeptides, intermediates therefor, and compositions and methods employing said heptapeptides” (priority 1977, dated 1978), which cites them from elsewhere.

The conditions of data set [1]: injected directly into the brain of the rat.
For data set [2], the system named is partially purified brain opiate receptor sites.

As for “H-Tyr-Gly-Gly-Phe-Met-OH [methionine enkephalin]”, the analgesic activity entry in data set [1] was “weak analgesic agent of short duration”. In addition, in data set [2], the “binding to partially purified brain opiate receptor sites” value is “binds stereo-specifically”. The “activity in bioassays for opiate activity” value in the data set with opiate activity is “very active”.
